Biological target: Replicase polyprotein 1ab (Severe acute respiratory syndrome coronavirus 2, UniProt P0DTD1)
Assay: Inhibition of SARS-COV-2 main protease using fluorogenic substrate (DABCYL)-Lys-Thr- Ser-Ala-Val-Leu-Gln-Ser-Gly-Phe-Arg-Lys-Met-Glu-(EDANS)-NH2 measured every 5 mins for 50 mins by plate reader assay

Compared with `CC1(C)C=Cc2c(ccc3cc(C(=O)N/N=C/c4ccnc5ccccc45)oc23)O1`, `CC1(C)C=Cc2c(ccc3cc(C(=O)N/N=C/c4cccc5ncccc45)oc23)O1` is 3-fold lower in IC50: 129 µM for the first, 43.1 µM for the second. The second is the more potent here.

Compared with `CC1(C)C=Cc2c(ccc3cc(C(=O)N/N=C/c4ccc5ccccc5n4)oc23)O1`, `CC1(C)C=Cc2c(ccc3cc(C(=O)N/N=C/c4ccc5cccc(O)c5n4)oc23)O1` is lower in IC50: > 250 µM for the first, 183 µM for the second.

`CC1(C)C=Cc2c(ccc3cc(C(=O)N/N=C/c4ccc5ncccc5c4)oc23)O1` and `CC1(C)C=Cc2c(ccc3cc(C(=O)N/N=C/c4cnc5ccccc5c4)oc23)O1` are within 1.5-fold of each other in IC50: 34.1 µM for the first, 29.7 µM for the second.

`CC1(C)C=Cc2c(ccc3cc(C(=O)N/N=C/c4cccc5cccnc45)oc23)O1` gave an IC50 of 16.1 µM.
